The first experiment concerns HCT-116 cell line. As to the kind of experiment: Inhibition of cell growth, tetrazolium salt (MTT) assay. It counts as cell-based. To be noted: HCT116 cells; compound at 250 nM; 0.25 µM. The method, then: Inhibition of Cell Growth: Assessment of Cytotoxicity:
Inhibition of cell growth was measured using the tetrazolium salt assay, which is based on the ability of viable cells to reduce 3-(4,5-dimethylthiazol-2-yl)-2,5-[2H]-diphenyltetrazolium bromide (MTT) to formazan (Mossman, Journal of Immunological Methods, vol. 65 (1983), pp. 55-58). The water-insoluble purple formazan product was then detected spectrophotometrically. The HCT-116 cell line was used as a representative cancer cell line and grown in 96-well plates. Cells were plated in McCoy's 5A Medium at a volume of 135 μl/well. Plates were incubated for four hours before addition of inhibitor compounds. Different concentrations of inhibitor compounds were added in 0.5% (v/v) dimethylsulfoxide (15 μLuwell), and cells were incubated at 37° C. (5% CO2) for three to five days. At the end of the incubation, MTT was added to a final concentration of 0.2 mg/mL, and cells were incubated for 4 hours more at 37° C. After centrifugation of the plates and removal of medium, the absorbance of the formazan (solubilized in dimethylsulfoxide) was measured at 540 nm. […] All results were compared to control cells treated only with 0.5% (v/v) dimethylsulfoxide.
In the case of `CC(=O)NCCNCCS(=O)(=O)N1CCC(Nc2nc(N)c(C(=O)c3c(F)cccc3F)s2)CC1` [Example S113], the “% Inhibition HCT116 @ 250 nM” value is recorded as 51%.
As for `N#CCNCCS(=O)(=O)N1CCC(Nc2nc(N)c(C(=O)c3c(F)cccc3F)s2)CC1` [Example S128], the “% Inhibition HCT116 @ 250 nM” value turned out to be 86%.
Regarding `Nc1nc(NC2CCN(S(=O)(=O)CCNCc3cccnc3)CC2)sc1C(=O)c1c(F)cccc1F` [Example S84], the “% Inhibition HCT116 @ 250 nM” value is reported as 12%.
Consider `N#CCNCCS(=O)(=O)N1CCC(Nc2nc(N)c(C(=O)c3c(F)cccc3F)s2)CC1` [Example S160], for which the “% Inhibition HCT116 @ 250 nM” value is on record as 30%.

The experiment is the same for the next values; noted with them: Homo sapiens, HCT-116, 120 h, first HCT-116 column (c4); MTT, three to five days; read-out: HCT-116 IC50.
Take `Nc1nc(NC2CCN(S(=O)(=O)CCN(Cc3ccccc3)CC3CC3)CC2)sc1C(=O)c1c(F)cccc1F` [Example K53, (4-Amino-2-{1-[2-(benzyl-cyclopropylmethyl-amino)-ethanesulfonyl]-piperidin-4-ylamino}-thiazol-5-yl)-(2,6-difluoro-phenyl)-methanone]: the IC50 (in general, the concentration that inhibits the measured activity by half) was 230 nM.

The experiment is the same for the next values; noted with them: Homo sapiens, HCT-116, 120 h, second HCT-116 column (c5); MTT, three to five days; read-out: HCT-116 IC50.
Consider `Nc1nc(NC2CCN(S(=O)(=O)CCN(Cc3ccccc3)CC3CC3)CC2)sc1C(=O)c1c(F)cccc1F` [Example K53, (4-Amino-2-{1-[2-(benzyl-cyclopropylmethyl-amino)-ethanesulfonyl]-piperidin-4-ylamino}-thiazol-5-yl)-(2,6-difluoro-phenyl)-methanone], for which the IC50 was 560 nM.

Staying with this experiment, now noted: Homo sapiens, HCT-116, HCT116 cells; compound at 250 nM; read-out: % Inhibition HCT116 @ 250 nM.
For `Nc1nc(NC2CCN(S(=O)(=O)CCN3CCC3)CC2)sc1C(=O)c1c(F)cccc1F` [Example S174], the inhibition – broadly, the drop in the measured response relative to a control, in per cent – at 0.25 µM came out at 10%.
Consider `CN(CCc1ccncc1)CCS(=O)(=O)N1CCC(Nc2nc(N)c(C(=O)c3c(F)cccc3F)s2)CC1` [Example S50], for which the inhibition at 0.25 µM was 17%.
The same measure, in the same setting: for `CC(C)CNCCS(=O)(=O)N1CCC(Nc2nc(N)c(C(=O)c3c(F)cccc3F)s2)CC1` [Example S111] the value was 54%; for `Nc1nc(NC2CCN(S(=O)(=O)CCNCCc3ccccc3)CC2)sc1C(=O)c1c(F)cccc1F` [Example S116], 60%; for `CC(=O)N1CCN(CCS(=O)(=O)N2CCC(Nc3nc(N)c(C(=O)c4c(F)cccc4F)s3)CC2)CC1` [Example S52], 18%.
With `Nc1nc(NC2CCN(S(=O)(=O)CCN[C@@H](CO)c3ccccc3)CC2)sc1C(=O)c1c(F)cccc1F` [Example S79], the inhibition at 0.25 µM came to 14%.
With `CCN(CCS(=O)(=O)N1CCC(Nc2nc(N)c(C(=O)c3c(F)cccc3F)s2)CC1)Cc1ccncc1` [Example S45], the inhibition at 0.25 µM was determined as 13%.
Consider `Nc1nc(NC2CCN(S(=O)(=O)CCN3CCC(CCO)CC3)CC2)sc1C(=O)c1c(F)cccc1F` [Example S25], for which the inhibition at 0.25 µM was 10%.
For the compound `Nc1nc(NC2CCN(S(=O)(=O)CCNCc3c(F)cccc3F)CC2)sc1C(=O)c1c(F)cccc1F` [Example S126], the inhibition at 0.25 µM came to 68%.
Turning to `Nc1nc(NC2CCN(S(=O)(=O)CCNCc3ccco3)CC2)sc1C(=O)c1c(F)cccc1F` [Example S72], the inhibition at 0.25 µM amounted to 19%.
On to `CC(C)N(CCS(=O)(=O)N1CCC(Nc2nc(N)c(C(=O)c3c(F)cccc3F)s2)CC1)C1CCCCC1` [Example S8], for which the inhibition at 0.25 µM was found to be 91%.
Turning to `CC(CO)NCCS(=O)(=O)N1CCC(Nc2nc(N)c(C(=O)c3c(F)cccc3F)s2)CC1` (stereo not drawn) [Example S90], the inhibition at 0.25 µM was 7%.
`Nc1nc(NC2CCN(S(=O)(=O)CCNCCc3ccccc3F)CC2)sc1C(=O)c1c(F)cccc1F` [Example S159]: the inhibition at 0.25 µM was 44%.
Same read-out and setting: under `CC(C)N(CCNCCS(=O)(=O)N1CCC(Nc2nc(N)c(C(=O)c3c(F)cccc3F)s2)CC1)C(C)C` [Example S134] stands 17%; under `Nc1nc(NC2CCN(S(=O)(=O)CCN3CCSC3)CC2)sc1C(=O)c1c(F)cccc1F` [Example S22], 18%.
On to `Nc1nc(NC2CCN(S(=O)(=O)CCN3CCC(O)CC3)CC2)sc1C(=O)c1c(F)cccc1F` [Example S24], for which the inhibition at 0.25 µM was found to be 14%.
Same read-out and setting: under `Nc1nc(NC2CCN(S(=O)(=O)CCNCCc3ccccn3)CC2)sc1C(=O)c1c(F)cccc1F` [Example S85] stands 19%; under `Nc1nc(NC2CCN(S(=O)(=O)CCNC3CCc4ccccc43)CC2)sc1C(=O)c1c(F)cccc1F` (stereo not drawn) [Example S73], 16%.
For `Nc1nc(NC2CCN(S(=O)(=O)CCNCc3ccccn3)CC2)sc1C(=O)c1c(F)cccc1F` [Example S86], the inhibition at 0.25 µM was determined as 11%.
`Nc1nc(NC2CCN(S(=O)(=O)CCNC3CCC3)CC2)sc1C(=O)c1c(F)cccc1F` [Example S59]: the inhibition at 0.25 µM worked out at 40%.
As to `Nc1nc(NC2CCN(S(=O)(=O)CCN3CCCC3)CC2)sc1C(=O)c1c(F)cccc1F` [Example S21], the inhibition at 0.25 µM was determined as 35%.
On the same count and under the same terms, for `CCCCN(CC#N)CCS(=O)(=O)N1CCC(Nc2nc(N)c(C(=O)c3c(F)cccc3F)s2)CC1` [Example S2] the value was 18%; for `Nc1nc(NC2CCN(S(=O)(=O)CCNCc3cc(F)ccc3F)CC2)sc1C(=O)c1c(F)cccc1F` [Example S125], 49%; for `CC(C)(C)CNCCS(=O)(=O)N1CCC(Nc2nc(N)c(C(=O)c3c(F)cccc3F)s2)CC1` [Example S107], 98%.
On to `Cc1ccc(CNCCS(=O)(=O)N2CCC(Nc3nc(N)c(C(=O)c4c(F)cccc4F)s3)CC2)o1` [Example S164], for which the inhibition at 0.25 µM worked out at 28%.
The same measure, in the same setting: for `Nc1nc(NC2CCN(S(=O)(=O)CCNC3CCSC3=O)CC2)sc1C(=O)c1c(F)cccc1F` (stereo not drawn) [Example S152] the value was 95%; for `CC(C)N(CCS(=O)(=O)N1CCC(Nc2nc(N)c(C(=O)c3c(F)cccc3F)s2)CC1)C(C)C` [Example S33], 79%; for `Cc1cc(C)cc(CNCCS(=O)(=O)N2CCC(Nc3nc(N)c(C(=O)c4c(F)cccc4F)s3)CC2)c1` [Example S143], 55%.
On to `Nc1nc(NC2CCN(S(=O)(=O)CCNCc3ccccc3Cl)CC2)sc1C(=O)c1c(F)cccc1F` [Example S96], for which the inhibition at 0.25 µM worked out at 48%.
As to `CN(CCS(=O)(=O)N1CCC(Nc2nc(N)c(C(=O)c3c(F)cccc3F)s2)CC1)CC1OCCO1` [Example S41], the inhibition at 0.25 µM was 18%.
As for `CC1CCN(CCNCCS(=O)(=O)N2CCC(Nc3nc(N)c(C(=O)c4c(F)cccc4F)s3)CC2)CC1` [Example S163], the inhibition at 0.25 µM was found to be 25%.
With `COc1ccccc1CNCCS(=O)(=O)N1CCC(Nc2nc(N)c(C(=O)c3c(F)cccc3F)s2)CC1` [Example S97], the inhibition at 0.25 µM worked out at 25%.
Still for that read-out and setting: for `CN(CCO)CCS(=O)(=O)N1CCC(Nc2nc(N)c(C(=O)c3c(F)cccc3F)s2)CC1` [Example S4] the value was 25%; for `CN(C)[C@@H]1CCN(CCS(=O)(=O)N2CCC(Nc3nc(N)c(C(=O)c4c(F)cccc4F)s3)CC2)C1` [Example S62], 6%; for `COC(=O)CNCCS(=O)(=O)N1CCC(Nc2nc(N)c(C(=O)c3c(F)cccc3F)s2)CC1` [Example S129], 25%.
Turning to `CC(C)N(CCS(=O)(=O)N1CCC(Nc2nc(N)c(C(=O)c3c(F)cccc3F)s2)CC1)Cc1ccccc1` [Example S44], the inhibition at 0.25 µM stood at 55%.
Take `Nc1nc(NC2CCN(S(=O)(=O)CCN3CCCCCC3)CC2)sc1C(=O)c1c(F)cccc1F` [Example S7]: the inhibition at 0.25 µM was 22%.
As for `Nc1nc(NC2CCN(S(=O)(=O)CCNCc3ccc(F)cc3F)CC2)sc1C(=O)c1c(F)cccc1F` [Example S124], the inhibition at 0.25 µM came to 51%.
In the case of `Cc1ccccc1CNCCS(=O)(=O)N1CCC(Nc2nc(N)c(C(=O)c3c(F)cccc3F)s2)CC1` [Example S98], the inhibition at 0.25 µM was 49%.
`Nc1nc(NC2CCN(S(=O)(=O)CCN3CCCC(CO)C3)CC2)sc1C(=O)c1c(F)cccc1F` (stereo not drawn) [Example S23]: the inhibition at 0.25 µM is 18%.
Turning to `CN1CCC(NCCS(=O)(=O)N2CCC(Nc3nc(N)c(C(=O)c4c(F)cccc4F)s3)CC2)C1=O` (stereo not drawn) [Example S157], the inhibition at 0.25 µM was 16%.
The same measure, in the same setting: for `COC(CN(C)CCS(=O)(=O)N1CCC(Nc2nc(N)c(C(=O)c3c(F)cccc3F)s2)CC1)OC` [Example S30] the value was 18%; for `Cc1ccc(CNCCS(=O)(=O)N2CCC(Nc3nc(N)c(C(=O)c4c(F)cccc4F)s3)CC2)cc1` [Example S105], 33%; for `CCCCN(CCO)CCS(=O)(=O)N1CCC(Nc2nc(N)c(C(=O)c3c(F)cccc3F)s2)CC1` [Example S36], 17%.
Take `COC(=O)CN(C)CCS(=O)(=O)N1CCC(Nc2nc(N)c(C(=O)c3c(F)cccc3F)s2)CC1` [Example S49]: the inhibition at 0.25 µM came to 33%.
Consider `CCN(CCS(=O)(=O)N1CCC(Nc2nc(N)c(C(=O)c3c(F)cccc3F)s2)CC1)CC(C)(C)O` [Example S35], for which the inhibition at 0.25 µM was 58%.
Take `CCCC(C)(C)NCCS(=O)(=O)N1CCC(Nc2nc(N)c(C(=O)c3c(F)cccc3F)s2)CC1` [Example S145]: the inhibition at 0.25 µM is 96%.
As for `Nc1nc(NC2CCN(S(=O)(=O)CCNCCN3CCCCC3)CC2)sc1C(=O)c1c(F)cccc1F` [Example S82], the inhibition at 0.25 µM amounted to 15%.
As to `C#CC(CC)(CC)NCCS(=O)(=O)N1CCC(Nc2nc(N)c(C(=O)c3c(F)cccc3F)s2)CC1` [Example S175], the inhibition at 0.25 µM amounted to 99%.
For the compound `CCCN(CCS(=O)(=O)N1CCC(Nc2nc(N)c(C(=O)c3c(F)cccc3F)s2)CC1)CC1CC1` [Example S1], the inhibition at 0.25 µM worked out at 36%.
Consider `Nc1nc(NC2CCN(S(=O)(=O)CCNC3CC3)CC2)sc1C(=O)c1c(F)cccc1F` [Example S60], for which the inhibition at 0.25 µM came out at 72%.

Values taken from patent US20050101595A1, “N-containing cycloalkyl-substituted amino-thiazole derivatives and pharmaceutical compositions for inhibiting cell proliferation and methods for their use” (PFIZER INC., priority 2003, published 2005).
